For 27 compounds, IC50 results are on record in patent US20230203060A1 (GENFLEET THERAPEUTICS (SHANGHAI) INC., priority 2020, published 2023).

Usually IC50 stands for the concentration that inhibits the measured activity by half.

Holding throughout (format): cell-based, human
Test [1] has as its system KRAS G12C mutant MIA PaCa-2 cells. Briefly: Cell proliferation inhibition experiment, 3D spheroid, CellTiter-Glo, MIA PaCa-2. The note with it: Homo sapiens, MIA PaCa-2, 120 h, 3D cell model in 384-well spheroid plate, 5 days, CellTiter-Glo; read-out: MIA-PaCa2 IC50. In short, it runs like this: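 200 MIA PaCa-2 cells/well grown overnight as 3D spheroids, then exposed to 3.16-fold compound dilutions (0.1% DMSO final) for 5 days. Viability read by CellTiter-Glo luminescence; inhibition calculated against DMSO and medium-only controls, and IC50 fitted by four-parameter model.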
A general note: In ATP-based viability assays light output follows the ATP content of the culture.

The subject of test [2] is KRAS G12C mutant NCI-H358 cells. The test can be described thus: Cell proliferation inhibition experiment, 3D spheroid, CellTiter-Glo, NCI-H358. The note with it: Homo sapiens, NCI-H358, 120 h, NCI-H358 (KRAS G12C mutant) 3D spheroid, 5 days with compound, CellTiter-Glo; read-out: H358 IC50. An outline of the steps: (§1)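 NCI-H358 (800 cells/well, RPMI-1640) and A549 (400 cells/well, F-12K) grown overnight as 3D spheroids in 2% FBS medium, then exposed 5 days to 3.16-fold compound dilutions at 0.1% DMSO. Viability measured by CellTiter-Glo luminescence; inhibition relative to DMSO and medium blank, IC50 from four-parameter fit.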

Test [3] has as its system A549 cells (KRAS G12S mutant). The test can be described thus: Cell proliferation inhibition experiment, 3D spheroid, CellTiter-Glo, A549. To be noted: Homo sapiens, A549, 120 h, A549 (KRAS G12S mutant) 3D spheroid, 5 days with compound, CellTiter-Glo; read-out: A549 IC50. An outline of the steps: as §1

Molecules are shown by their SMILES. A value given as a limit tells only on which side of the number the result lay.

On to `C=CC(=O)N1CCN2C(=O)c3c(N4CC(N(C)CC(F)(F)F)CC4(C)C)nc(-c4ccccc4F)c(Cl)c3OC[C@H]2C1` (mixture of isomers) [Z491a, (6aR)-8-acryloyl-4-chloro-1-(2,2-dimethyl-4-(methyl(2,2,2-trifluoroethyl)amino)pyrrolidin-1-yl)-3-(2-fluorophenyl)-6,6a,7,8,9,10-hexahydro-12H-pyrazino[2,1-c]pyrido[3,4-f][1,4]oxazepin-12-one], for which the values for the IC50 in test [1], in test [2] and in test [3] were 10 nM, 2 nM and 4030 nM, respectively.
Regarding `C=CC(=O)N1CCN2C(=O)c3c(N4C[C@H](N(C)CCOC)CC4(C)C)nc(-c4ccccc4F)c(Cl)c3OC[C@H]2C1` (single isomer, unassigned) [Z406-1], the values for the IC50 in test [1], in test [2] and in test [3] were 10 nM, 4 nM and 2120 nM, respectively.
The matching figures for `C=CC(=O)N1CCN2C(=O)c3c(N4C[C@@H](O)CC4(C)C)nc(-c4ccccc4F)c(F)c3OC[C@H]2C1` (single isomer, unassigned) [Z408-1]: 79.3 nM, 21.7 nM and 9250 nM.
For `C=CC(=O)N1CCN2C(=O)c3c(N4CC(O)CC4(C)C)nc(-c4c(F)cccc4OC)c(F)c3OC[C@H]2C1` (single isomer, unassigned) [Z450], the half-inhibitory concentration (IC50) was found to be 34 nM in test [1], 13.1 nM in test [2] and 20500 nM in test [3].
On to `C=CC(=O)N1CCN2C(=O)c3c(N4CC(N(C)C)CC4(C)C)nc(-c4ccccc4F)c(Cl)c3OC[C@H]2C1` (single isomer, unassigned) [Z453-2], for which the IC50 in test [1] was 45.2 nM; in test [2], 16.6 nM; in test [3], 6720 nM.
In the case of `C=CC(=O)N1CCN2C(=O)c3c(N4C[C@@H](N5CCN(C)CC5)CC4(C)C)nc(-c4ccccc4F)c(Cl)c3OC[C@H]2C1` (single isomer, unassigned) [Z454-1], the IC50 came to 3.5 nM in test [1], 1.2 nM in test [2] and 2630 nM in test [3].
Regarding `C=CC(=O)N1CCN2C(=O)c3c(N4C[C@H](N5CCN(C)CC5)CC4(C)C)nc(-c4ccccc4F)c(Cl)c3OC[C@H]2C1` (single isomer, unassigned) [Z454-2], the values for the IC50 in test [1], in test [2] and in test [3] were 16.8 nM, 7.2 nM and 2660 nM, respectively.
For `C=CC(=O)N1CCN2C(=O)c3c(N4C[C@@H](C(=O)O)CC4(C)C)nc(-c4c(O)cccc4F)c(Cl)c3OC[C@H]2C1` (single isomer, unassigned) [Z458-1], the IC50 was > 1000 nM in test [1], 189 nM in test [2] and > 10000 nM in test [3].
On to `C=CC(=O)N1CCN2C(=O)c3c(N4CCN(C)[C@@H](C)[C@H]4C)nc(-c4ccccc4F)c(Cl)c3OC[C@H]2C1` (single isomer, unassigned) [Z465-1], for which, in test [2], the half-maximal inhibitory concentration (IC50) turned out to be 13 nM.
Regarding `C=CC(=O)N1CCN2C(=O)c3c(N4CC(N5CCOCC5)CC4(C)C)nc(-c4ccccc4F)c(Cl)c3OC[C@H]2C1` (single isomer, unassigned) [Z468-1], the figures for the IC50 in test [1], in test [2] and in test [3] were 16 nM, 4 nM and 3280 nM, respectively.
For `C=CC(=O)N1CCN2C(=O)c3c(N4C[C@@H](N5CCN(C)CC5)CC4(C)C)nc(-c4c(O)cccc4F)c(Cl)c3OC[C@H]2C1` (single isomer, unassigned) [Z469-1], the figures for the IC50 in test [1], in test [2] and in test [3] were 0.6 nM, 0.5 nM and 5230 nM, respectively.
As for `C=CC(=O)N1CCN2C(=O)c3c(N4C[C@H](N5CCC5)CC4(C)C)nc(-c4ccccc4F)c(Cl)c3OC[C@H]2C1` (single isomer, unassigned) [Z471-2], in test [2], the IC50 stood at 91 nM.
Regarding `C=CC(=O)N1CCN2C(=O)c3c(N4CC(N(C)C)CC4(C)C)nc(-c4cccc(F)c4F)c(Cl)c3OC[C@H]2C1` (single isomer, unassigned) [Z473-2], the half-maximal inhibitory concentration (IC50) was determined as 45 nM in test [1] and 12 nM in test [2].
On to `C=CC(=O)N1CCN2C(=O)c3c(N4C[C@@H](N5CCN(C)CC5)CC4(C)C)nc(-c4c(F)cccc4Cl)c(Cl)c3OC[C@H]2C1` (single isomer, unassigned) [Z635-1], for which the half-maximal inhibitory concentration (IC50) in test [2] amounted to 0.8 nM; in test [3] it was 2280 nM.
In the case of `C=CC(=O)N1CCN2C(=O)c3c(N4C[C@H](N5CCN(C)CC5)CC4(C)C)nc(-c4c(F)cccc4Cl)c(Cl)c3OC[C@H]2C1` (single isomer, unassigned) [Z635-2], the IC50 was 7 nM in test [2] and 2970 nM in test [3].
With `C=CC(=O)N1CCN2C(=O)c3c(N4C[C@@H](N(C)CCO)CC4(C)C)nc(-c4ccccc4F)c(Cl)c3OC[C@H]2C1` (single isomer, unassigned) [Z658-1], the concentration for half-maximal inhibition (IC50) is 1 nM in test [2] and 2970 nM in test [3].
Turning to `C=CC(=O)N1CCN2C(=O)c3c(N4CCN(C)C[C@@H]4C)nc(C#CC)c(Cl)c3OC[C@H]2C1` [Z459, (R)-8-acryloyl-4-chloro-1-((S)-2,4-dimethylpiperazin-1-yl)-3-(prop-1-yn-1-yl)-6,6a,7,8,9,10-hexahydro-12H-pyrazino[2,1-c]pyrido[3,4-f][1,4]oxazepin-12-one], the IC50 in test [1] is > 1000 nM; in test [2], 906 nM.
For `C=CC(=O)N1CCN2C(=O)c3c(N4CCN(C)C[C@@H]4C)nc(-c4ccccc4Cl)c(Cl)c3OC[C@H]2C1` [Z461, (R)-8-acryloyl-4-chloro-3-(2-chlorophenyl)-1-((S)-2,4-dimethylpiperazin-1-yl)-6,6a,7,8,9,10-hexahydro-12H-pyrazino[2,1-c]pyrido[3,4-f][1,4]oxazepin-12-one] the same measures were 33 nM and 24 nM.
Take `C=CC(=O)N1CCN2C(=O)c3c(N4C[C@@H](C)N(C)C[C@@H]4C)nc(-c4ccccc4F)c(Cl)c3OC[C@H]2C1` [Z464]: the results for the IC50 in test [1] and in test [2] were 179 nM and 144 nM, respectively.
For `C=CC(=O)N1CCN2C(=O)c3c(N4CC(N5CCN(C)CC5)CC4(C)C)nc(-c4c(O)cccc4F)c(Cl)c3OC[C@H]2C1` (stereo partly drawn) [Z467, (6aR)-8-acryloyl-4-chloro-1-(2,2-dimethyl-4-(4-methylpiperazin-1-yl)pyrrolidin-1-yl)-3-(2-fluoro-6-hydroxyphenyl)-6,6a,7,8,9,10-hexahydro-12H-pyrazino[2,1-c]pyrido[3,4-f][1,4]oxazepin-12-one] the same measures were 1 nM and 0.8 nM.
`C=CC(=O)N1CCN2C(=O)c3c(N4C[C@H](N5CCN(C)CC5)C[C@@H]4C)nc(-c4ccccc4F)c(Cl)c3OC[C@H]2C1` [Z470-1]: the IC50 in test [1] came to 43 nM; in test [2], 23 nM.
As for `C=CC(=O)N1CCN2C(=O)c3c(N4C[C@@H](N(C)C)CC4(C)C)nc(-c4cccc(F)c4F)c(Cl)c3OC[C@H]2C1` [Z473-1, (R)-8-acryloyl-4-chloro-3-(2,3-difluorophenyl)-1-((S)-4-(dimethylamino)-2,2-dimethylpyrrolidin-1-yl)-6,6a,7,8,9,10-hexahydro-12H-pyrazino[2,1-c]pyrido[3,4-f][1,4]oxazepin-12-one], in test [2], the IC50 was found to be 22 nM.
Turning to `C=CC(=O)N1CCN2C(=O)c3c(N4CCN(C(=O)CC)C[C@@H]4C)nc(-c4ccccc4F)c(Cl)c3OC[C@H]2C1` [Z477, (R)-8-acryloyl-4-chloro-3-(2-fluorophenyl)-1-((S)-2-methyl-4-propionylpiperazin-1-yl)-6,6a,7,8,9,10-hexahydro-12H-pyrazino[2,1-c]pyrido[3,4-f][1,4]oxazepin-12(6aH)-one], the IC50 in test [2] worked out at 8.1 nM.
For `C=CC(=O)N1CCN2C(=O)c3c(N4C[C@@H](N5CC(OC)C5)CC4(C)C)nc(-c4ccccc4F)c(Cl)c3OC[C@H]2C1` [Z479-1, (R)-8-acryloyl-4-chloro-3-(2-fluorophenyl)-1-((S)-4-(3-methoxyazetidin-1-yl)-2,2-dimethylpyrrolidin-1-yl)-6,6a,7,8,9,10-hexahydro-12H-pyrazino[2,1-c]pyrido[3,4-f][1,4]oxazepin-12-one], the IC50 in test [1] was determined as 15 nM; in test [2], 5.7 nM.
Consider `C=CC(=O)N1CCN2C(=O)c3c(N4C[C@@H](O)CC4(C)C)nc(-c4c(N)cccc4F)c(F)c3OC[C@H]2C1` [Z481, (6aR)-8-acryloyl-3-(2-amino-6-fluorophenyl)-4-fluoro-1-((S)-4-hydroxy-2,2-dimethylpyrrolidin-1-yl)-6,6a,7,8,9,10-hexahydro-12H-pyrazino[2,1-c]pyrido[3,4-f][1,4]oxazepin-12-one], for which the IC50 came to 4 nM in test [1] and 3.2 nM in test [2].
With `C=CC(=O)N1CCN2C(=O)c3c(N4CC[C@@H](N(C)C)C4(C)C)nc(-c4ccccc4F)c(Cl)c3OC[C@H]2C1` [Z502-1, (6aR)-8-acryloyl-4-chloro-1-(3-(dimethylamino)-2,2-dimethylpyrrolidin-1-yl)-3-(2-fluorophenyl)-6,6a,7,8,9,10-hexahydro-12H-pyrazino[2,1-c]pyrido[3,4-f][1,4]oxazepin-12(6aH)-one], in test [2], the concentration for half-maximal inhibition (IC50) is 29.6 nM.
For `C=CC(=O)N1CCN2C(=O)c3c(N4CCN(C)C[C@@H]4C)nc(-c4c(N)cccc4F)c(Cl)c3OC[C@H]2C1` [Z503, (6aR)-8-acryloyl-3-(2-amino-6-fluorophenyl)-4-chloro-1-((S)-2,4-dimethylpiperazin-1-yl)-6,6a,7,8,9,10-hexahydro-12H-pyrazino[2,1-c]pyrido[3,4-f][1,4]oxazepin-12-one], the 50% inhibitory concentration (IC50) in test [1] worked out at 7 nM; in test [2], 9.5 nM.
